# Experimental data published in ChEMBL document CHEMBL3526034 (Drug Metab Dispos, 2013).
# Experiments:
# [1] = Drug excretion in human urine at 20 mg, po; type: ADME, tissue-based; conditions: read-out: Drug excretion
# [2] = molecular target: T1, ATP-binding cassette sub-family C member 2 (Homo sapiens, UniProt Q92887); experiment: Inhibition of human MRP2
# Cytochrome P450 2B6 = molecular target: T2, Cytochrome P450 2B6 (Homo sapiens, UniProt P20813); experiment: Metabolism-dependent inhibition of CYP2B6 in human liver microsomes using bupropion as substrate preincubated for 20 mins with NADPH prior to initiation of reaction with probe substrate by HPLC analysis; type: ADME
# T2 sequence (P20813 whole entry): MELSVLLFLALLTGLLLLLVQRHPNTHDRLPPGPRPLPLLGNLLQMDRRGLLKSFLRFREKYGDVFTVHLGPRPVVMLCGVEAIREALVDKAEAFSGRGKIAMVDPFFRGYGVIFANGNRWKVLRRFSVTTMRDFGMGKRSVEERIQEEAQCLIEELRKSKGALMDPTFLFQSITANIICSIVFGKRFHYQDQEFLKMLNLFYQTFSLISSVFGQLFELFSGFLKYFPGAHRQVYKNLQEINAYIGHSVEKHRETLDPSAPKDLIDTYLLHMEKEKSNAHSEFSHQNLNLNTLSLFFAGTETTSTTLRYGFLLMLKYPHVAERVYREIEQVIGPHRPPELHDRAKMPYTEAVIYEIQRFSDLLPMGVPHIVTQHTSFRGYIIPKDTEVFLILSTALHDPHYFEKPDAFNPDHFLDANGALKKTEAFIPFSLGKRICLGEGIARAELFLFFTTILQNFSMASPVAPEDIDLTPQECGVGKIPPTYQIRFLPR
# Cytochrome P450 2C19 = Cytochrome P450 2C19 (Homo sapiens, UniProt P33261); experiment: Metabolism-dependent inhibition of CYP2C19 in human liver microsomes using S-mephenytoin as substrate preincubated for 20 mins with NADPH prior to initiation of reaction with probe substrate by HPLC analysis; type: ADME
# Chain of Cytochrome P450 2C19 (P33261 whole entry): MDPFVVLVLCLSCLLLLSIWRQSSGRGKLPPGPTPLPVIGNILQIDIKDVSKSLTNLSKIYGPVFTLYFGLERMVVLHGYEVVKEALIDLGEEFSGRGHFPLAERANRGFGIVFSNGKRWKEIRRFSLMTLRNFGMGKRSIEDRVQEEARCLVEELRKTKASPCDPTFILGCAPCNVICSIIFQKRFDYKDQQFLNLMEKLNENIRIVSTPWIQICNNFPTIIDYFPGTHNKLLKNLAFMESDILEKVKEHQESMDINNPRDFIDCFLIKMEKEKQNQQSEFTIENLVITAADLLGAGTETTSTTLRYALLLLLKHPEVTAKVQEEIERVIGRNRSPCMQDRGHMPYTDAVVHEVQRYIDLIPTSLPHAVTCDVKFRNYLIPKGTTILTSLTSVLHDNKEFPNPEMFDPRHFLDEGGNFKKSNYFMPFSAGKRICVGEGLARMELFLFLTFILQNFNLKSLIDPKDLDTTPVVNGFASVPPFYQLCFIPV
# [3] = molecular target: T1, ATP-binding cassette sub-family C member 2; experiment: Inhibition of human MRP2 expressed in baculovirus-infected Sf9 cell membrane vesicle using [3H]estradiol 17beta-D-glucuronide as substrate preincubated with vesicles for 5 mins prior to substrate addition by liquid scintillation counting analysis
# MDR1 (P-gp, ABCB1) = MDR1 (P-gp, ABCB1) (Homo sapiens, UniProt P08183); experiment: Activity at human MDR1 expressed in MDCK2 cells assessed as basolateral to apical mass balance at 3 uM by liquid scintillation counting analysis in presence of 3 uM P-gp and BCRP inhibitor GF120918; type: ADME, cell-based, MDCK-II; conditions: with GF120918 (P-gp and BCRP inhibitor), read-out: Activity
# Chain of MDR1 (P-gp, ABCB1) (P08183 whole entry): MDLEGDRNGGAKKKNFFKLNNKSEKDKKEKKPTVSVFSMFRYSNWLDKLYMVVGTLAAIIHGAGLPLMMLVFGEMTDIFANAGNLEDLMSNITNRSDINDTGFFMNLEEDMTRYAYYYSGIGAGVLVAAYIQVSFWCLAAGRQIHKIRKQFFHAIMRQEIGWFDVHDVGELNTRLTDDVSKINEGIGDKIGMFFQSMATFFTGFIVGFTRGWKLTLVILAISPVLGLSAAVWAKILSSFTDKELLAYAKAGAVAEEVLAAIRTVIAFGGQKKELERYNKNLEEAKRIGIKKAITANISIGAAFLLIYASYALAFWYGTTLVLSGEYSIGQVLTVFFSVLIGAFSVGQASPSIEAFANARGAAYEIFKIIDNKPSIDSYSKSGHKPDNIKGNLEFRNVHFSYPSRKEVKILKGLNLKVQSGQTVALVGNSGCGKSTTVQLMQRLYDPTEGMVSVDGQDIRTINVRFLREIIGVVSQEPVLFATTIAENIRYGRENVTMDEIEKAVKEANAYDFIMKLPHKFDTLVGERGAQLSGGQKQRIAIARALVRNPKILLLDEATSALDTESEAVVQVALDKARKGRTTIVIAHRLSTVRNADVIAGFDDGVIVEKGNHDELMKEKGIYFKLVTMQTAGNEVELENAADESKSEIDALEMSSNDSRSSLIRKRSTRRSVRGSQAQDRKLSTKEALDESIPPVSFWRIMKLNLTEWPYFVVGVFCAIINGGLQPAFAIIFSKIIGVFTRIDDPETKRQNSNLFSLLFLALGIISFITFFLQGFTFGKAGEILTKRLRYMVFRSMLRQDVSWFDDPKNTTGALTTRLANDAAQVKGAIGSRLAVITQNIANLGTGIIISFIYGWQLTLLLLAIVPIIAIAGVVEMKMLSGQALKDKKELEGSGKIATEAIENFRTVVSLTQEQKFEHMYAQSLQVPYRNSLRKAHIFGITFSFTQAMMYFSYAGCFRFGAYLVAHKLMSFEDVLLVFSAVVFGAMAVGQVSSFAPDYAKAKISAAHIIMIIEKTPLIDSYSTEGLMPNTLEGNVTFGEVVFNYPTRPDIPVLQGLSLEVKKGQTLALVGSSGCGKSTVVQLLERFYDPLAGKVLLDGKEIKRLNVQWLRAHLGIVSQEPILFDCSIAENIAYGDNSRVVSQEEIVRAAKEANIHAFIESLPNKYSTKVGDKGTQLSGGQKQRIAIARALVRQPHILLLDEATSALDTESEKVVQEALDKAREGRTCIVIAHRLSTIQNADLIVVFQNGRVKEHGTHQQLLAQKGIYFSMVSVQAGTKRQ
# Cytochrome P450 3A4 [4] = molecular target: T3, Cytochrome P450 3A4 (Homo sapiens, UniProt P08684); experiment: Drug metabolism in supersomes expressing human recombinant CYP3A4 assessed as intrinsic clearance for NADPH-fortified enzyme-mediated metabolite M3 ((4R,12aS)-N-((3,5-difluorophenyl)(hydroxy)methyl)-7-hydroxy-4-methyl-6,8-dioxo-3,4,6,8,12,12a-hexahydro-2H-[1,3]oxazino[3,2-d]pyrido[1,2-a]pyrazine-9-carboxamide) formation at 5 uM after 120 mins by radio-HPLC analysis; type: ADME
# T3 sequence (P08684 whole entry): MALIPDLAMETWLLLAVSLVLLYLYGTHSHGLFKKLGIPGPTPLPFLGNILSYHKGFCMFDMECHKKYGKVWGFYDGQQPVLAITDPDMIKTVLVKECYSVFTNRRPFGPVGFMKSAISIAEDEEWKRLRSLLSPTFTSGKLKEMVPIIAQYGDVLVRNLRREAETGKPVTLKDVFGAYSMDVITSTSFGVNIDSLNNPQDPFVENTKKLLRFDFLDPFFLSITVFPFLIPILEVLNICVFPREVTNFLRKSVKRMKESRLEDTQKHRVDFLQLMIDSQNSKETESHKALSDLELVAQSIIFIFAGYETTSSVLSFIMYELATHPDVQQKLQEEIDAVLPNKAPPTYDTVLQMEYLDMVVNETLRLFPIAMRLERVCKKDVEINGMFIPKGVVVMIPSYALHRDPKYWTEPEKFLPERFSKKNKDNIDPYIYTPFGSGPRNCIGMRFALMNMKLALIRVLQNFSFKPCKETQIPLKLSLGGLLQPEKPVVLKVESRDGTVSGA
# Cytochrome P450 3A4 [5] = molecular target: T3, Cytochrome P450 3A4; experiment: Drug metabolism in supersomes expressing human recombinant CYP3A4 assessed as for NADPH-fortified enzyme-mediated metabolite M1 ((4R,12aS)-7-hydroxy-4-methyl-6,8-dioxo-3,4,6,8,12,12a-hexahydro-2H-[1,3]oxazino[3,2-d]pyrido[1,2-a]pyrazine-9-carboxamide) formation at 5 uM after 120 mins by radio-HPLC analysis; type: ADME
# Cytochrome P450 1A2 = molecular target: T4, Cytochrome P450 1A2 (Homo sapiens, UniProt P05177); experiment: Drug metabolism in supersomes expressing human recombinant CYP1A2 assessed as NADPH-fortified enzyme-mediated metabolite formation at 5 uM after 120 mins by radio HPLC analysis; type: ADME; conditions: 2 h
# T4 sequence (P05177 whole entry): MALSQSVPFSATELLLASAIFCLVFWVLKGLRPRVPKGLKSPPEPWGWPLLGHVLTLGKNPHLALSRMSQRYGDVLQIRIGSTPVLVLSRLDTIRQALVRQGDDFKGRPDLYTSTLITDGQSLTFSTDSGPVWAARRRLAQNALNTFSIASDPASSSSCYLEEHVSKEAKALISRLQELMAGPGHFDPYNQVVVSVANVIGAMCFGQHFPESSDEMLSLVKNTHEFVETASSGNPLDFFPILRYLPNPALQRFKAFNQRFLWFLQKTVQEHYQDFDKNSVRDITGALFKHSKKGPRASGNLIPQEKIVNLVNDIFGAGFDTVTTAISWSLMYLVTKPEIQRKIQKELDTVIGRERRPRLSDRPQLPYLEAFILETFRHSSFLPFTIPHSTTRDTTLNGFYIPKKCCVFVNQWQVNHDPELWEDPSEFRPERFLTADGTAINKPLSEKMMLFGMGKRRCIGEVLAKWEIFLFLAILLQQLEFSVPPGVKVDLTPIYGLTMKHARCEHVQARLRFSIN
# Cytochrome P450 2C8 = molecular target: T5, Cytochrome P450 2C8 (Homo sapiens, UniProt P10632); experiment: Drug metabolism in supersomes expressing human recombinant CYP2C8 assessed as NADPH-fortified enzyme-mediated metabolite formation at 5 uM after 120 mins by radio HPLC analysis; type: ADME; conditions: 2 h
# T5 sequence (P10632 whole entry): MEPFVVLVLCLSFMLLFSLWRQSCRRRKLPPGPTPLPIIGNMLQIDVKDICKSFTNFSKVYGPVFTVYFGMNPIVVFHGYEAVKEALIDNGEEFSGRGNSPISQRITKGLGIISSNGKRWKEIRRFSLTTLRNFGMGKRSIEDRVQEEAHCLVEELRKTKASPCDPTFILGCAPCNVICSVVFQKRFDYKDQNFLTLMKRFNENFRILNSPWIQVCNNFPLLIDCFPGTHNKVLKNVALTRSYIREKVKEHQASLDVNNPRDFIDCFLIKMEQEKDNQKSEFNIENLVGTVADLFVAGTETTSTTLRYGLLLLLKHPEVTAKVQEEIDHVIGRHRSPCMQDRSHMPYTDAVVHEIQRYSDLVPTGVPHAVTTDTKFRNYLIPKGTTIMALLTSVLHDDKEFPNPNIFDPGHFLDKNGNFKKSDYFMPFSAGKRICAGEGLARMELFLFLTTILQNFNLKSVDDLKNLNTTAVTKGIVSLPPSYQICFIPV
# Liver microsome = experiment: Drug metabolism in UDPGA-fortified human liver microsomes assessed as DTG glucuronide metabolite ((2S,3S,4S,5R,6S)-6-((4R,12aS)-9-(2,4-difluorobenzylcarbamoyl)-4-methyl-6,8-dioxo-3,4,6,8,12,12a-hexahydro-2H-[1,3]oxazino[3,2-d]pyrido[1,2-a]pyrazin-7-yloxy)-3,4,5-trihydroxytetrahydro-2H-pyran-2-carboxylic acid) formation at 10 uM after 120 mins by radio-HPLC analysis in presence of UGT1A1 inhibitor atazanavir; type: ADME
# [6] = molecular target: UDP-glucuronosyltransferase 1A4 (Homo sapiens, UniProt P22310); experiment: Drug metabolism assessed as UDPGA-fortified human recombinant UGT1A4-mediated DTG glucuronide metabolite ((2S,3S,4S,5R,6S)-6-((4R,12aS)-9-(2,4-difluorobenzylcarbamoyl)-4-methyl-6,8-dioxo-3,4,6,8,12,12a-hexahydro-2H-[1,3]oxazino[3,2-d]pyrido[1,2-a]pyrazin-7-yloxy)-3,4,5-trihydroxytetrahydro-2H-pyran-2-carboxylic acid) formation at 16 uM after 120 mins by radio-HPLC analysis; type: ADME; conditions: recombinant enzyme
# Chain of UDP-glucuronosyltransferase 1A4 (P22310 whole entry): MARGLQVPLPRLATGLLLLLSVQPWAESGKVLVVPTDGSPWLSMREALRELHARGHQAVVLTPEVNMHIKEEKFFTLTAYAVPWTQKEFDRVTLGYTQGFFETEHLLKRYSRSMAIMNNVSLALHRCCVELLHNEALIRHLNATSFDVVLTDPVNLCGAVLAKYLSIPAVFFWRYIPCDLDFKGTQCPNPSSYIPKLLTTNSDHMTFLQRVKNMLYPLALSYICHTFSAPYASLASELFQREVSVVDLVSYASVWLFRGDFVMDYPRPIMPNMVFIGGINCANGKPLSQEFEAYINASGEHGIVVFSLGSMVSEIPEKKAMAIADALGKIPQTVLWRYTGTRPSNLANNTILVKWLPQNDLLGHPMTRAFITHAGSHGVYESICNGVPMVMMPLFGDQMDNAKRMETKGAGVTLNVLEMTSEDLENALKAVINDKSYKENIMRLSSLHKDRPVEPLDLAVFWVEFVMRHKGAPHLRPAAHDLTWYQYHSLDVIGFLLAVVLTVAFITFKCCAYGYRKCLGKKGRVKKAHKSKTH
# T1 sequence (Q92887 whole entry): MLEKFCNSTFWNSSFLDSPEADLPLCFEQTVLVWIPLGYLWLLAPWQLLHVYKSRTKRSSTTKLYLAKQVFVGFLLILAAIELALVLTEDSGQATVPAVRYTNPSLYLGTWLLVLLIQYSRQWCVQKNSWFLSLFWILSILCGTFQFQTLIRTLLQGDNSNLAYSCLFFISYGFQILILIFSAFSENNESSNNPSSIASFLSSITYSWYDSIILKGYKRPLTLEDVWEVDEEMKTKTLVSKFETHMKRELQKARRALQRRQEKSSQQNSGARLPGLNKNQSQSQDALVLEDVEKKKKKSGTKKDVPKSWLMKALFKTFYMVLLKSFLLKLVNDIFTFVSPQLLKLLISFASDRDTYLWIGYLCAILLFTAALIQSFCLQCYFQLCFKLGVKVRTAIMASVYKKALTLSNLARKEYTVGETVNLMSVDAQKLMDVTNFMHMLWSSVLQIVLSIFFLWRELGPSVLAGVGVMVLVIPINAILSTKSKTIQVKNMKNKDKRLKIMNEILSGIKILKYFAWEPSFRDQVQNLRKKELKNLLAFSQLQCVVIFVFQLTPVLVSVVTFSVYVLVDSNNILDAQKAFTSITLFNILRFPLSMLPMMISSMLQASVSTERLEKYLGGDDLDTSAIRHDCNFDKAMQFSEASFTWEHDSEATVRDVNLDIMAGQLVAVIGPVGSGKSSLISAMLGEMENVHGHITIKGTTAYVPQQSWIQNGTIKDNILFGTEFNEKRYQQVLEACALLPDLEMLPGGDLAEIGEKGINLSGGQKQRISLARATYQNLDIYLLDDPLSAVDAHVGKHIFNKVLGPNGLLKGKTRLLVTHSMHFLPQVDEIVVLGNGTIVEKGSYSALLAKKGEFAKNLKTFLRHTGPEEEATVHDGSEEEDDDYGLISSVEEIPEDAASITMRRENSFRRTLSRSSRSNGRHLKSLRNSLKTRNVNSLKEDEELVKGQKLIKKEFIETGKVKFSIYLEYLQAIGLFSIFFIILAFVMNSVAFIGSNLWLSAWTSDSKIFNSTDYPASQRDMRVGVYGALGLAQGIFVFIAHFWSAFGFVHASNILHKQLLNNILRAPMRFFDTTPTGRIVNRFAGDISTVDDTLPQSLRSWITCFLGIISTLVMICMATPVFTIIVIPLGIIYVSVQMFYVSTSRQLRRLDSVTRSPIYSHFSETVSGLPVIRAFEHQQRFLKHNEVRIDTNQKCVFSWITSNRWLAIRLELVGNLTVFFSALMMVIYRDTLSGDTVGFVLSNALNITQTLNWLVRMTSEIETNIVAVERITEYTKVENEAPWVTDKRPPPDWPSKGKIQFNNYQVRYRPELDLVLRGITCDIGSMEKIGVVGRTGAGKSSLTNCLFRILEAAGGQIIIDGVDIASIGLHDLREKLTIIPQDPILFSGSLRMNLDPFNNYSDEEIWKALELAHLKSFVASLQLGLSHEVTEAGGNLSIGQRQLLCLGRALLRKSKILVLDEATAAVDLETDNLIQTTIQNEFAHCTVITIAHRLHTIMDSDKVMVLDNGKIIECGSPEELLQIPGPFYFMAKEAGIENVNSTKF
structure (smiles),measurement,setting,value
C[C@@H]1CCO[C@H]2Cn3cc(C(=O)NCc4ccc(F)cc4F)c(=O)c(O)c3C(=O)N12 [DOLUTEGRAVIR],dose excreted,[1],31.6%
same,IC50,[2],> 90 µM
same,IC50,Cytochrome P450 2B6,> 100 µM
same,IC50,Cytochrome P450 2C19,> 100 µM
same,IC50,[3],> 100 µM
same,recovery at 3 µM,"MDR1 (P-gp, ABCB1)",75%
same,CL,Cytochrome P450 3A4 [4],3 µL/min/mg
same,Drug metabolism,Cytochrome P450 3A4 [5],metabolite_detected
same,Drug metabolism,Cytochrome P450 1A2,metabolite_not_detected
same,Drug metabolism,Cytochrome P450 2C8,metabolite_not_detected
same,Drug metabolism,Liver microsome,metabolite_not_detected
same,Drug metabolism,[6],metabolite_not_detected
